Assay results as given in PubChem BioAssay (NCI).
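1) Cells in 96-well plates. 2) Compound, 48 h, 5 concentrations. 3) Linear interpolation between surrounding doses. 4) Unreached endpoint = highest concentration. GI50: concentration for 50% inhibition of growth. TGI denotes the concentration required for complete inhibition of growth.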

Columns and labels:
Test in all cases: NCI-60 cell line screen, 48 h
[1] = system: SNB-75 CNS
[2] = system: UACC-62 melanoma
[3] = system: A549 NSCLC
[4] = system: K-562 leukemia
[5] = system: CCRF-CEM leukemia
[6] = system: HCT-15 colon
[7] = system: EKVX NSCLC
[8] = system: KM12 colon
[9] = system: UACC-257 melanoma
[10] = system: HCC-2998 colon
[11] = system: OVCAR-3 ovarian
[12] = system: HOP-62 NSCLC
[13] = system: COLO 205 colon
[14] = system: NCI/ADR-RES ovarian
[15] = system: U251 CNS
[16] = system: MDA-MB-435
[17] = system: MDA-MB-231 breast
[18] = system: RXF 393 renal
[19] = system: T-47D breast
[20] = system: SK-MEL-5 melanoma
[21] = system: A498 renal
[22] = system: BT-549 breast
[23] = system: MCF7 breast
[24] = system: SK-MEL-2 melanoma
[25] = system: DU-145 prostate
[26] = system: SW-620 colon
[27] = system: SF-268 CNS
[28] = system: HCT-116 colon
[29] = system: OVCAR-4 ovarian
[30] = system: PC-3 prostate
[31] = system: SR leukemia
[32] = system: MDA-MB-468 breast
[33] = system: NCI-H460 lung
[34] = system: OVCAR-8 ovarian
[35] = system: M14 melanoma
[36] = system: HL-60(TB) leukemia
[37] = system: HOP-92 NSCLC
[38] = system: SNB-19 CNS
[39] = system: SK-MEL-28 melanoma
[40] = system: SK-OV-3 ovarian
[41] = system: IGROV1 ovarian
[42] = system: OVCAR-5 ovarian
[43] = system: TK-10 renal
[44] = system: CAKI-1 renal
[45] = system: NCI-H23 lung
[46] = system: NCI-H226 lung
[47] = system: RPMI-8226 leukemia
[48] = system: LOX IMVI melanoma
[49] = system: HS 578T breast
[50] = system: 786-0 renal
[51] = system: SF-295 CNS
[52] = system: SN12C renal
[53] = system: UO-31 renal
[54] = system: SF-539 CNS
[55] = system: MALME-3M melanoma
[56] = system: MOLT-4 leukemia
[57] = system: ACHN renal
[58] = system: HT29 colon
[59] = system: NCI-H522 lung

COc1ccc(CCN2C(=O)/C(=C/c3csc(C#N)n3)SC2=S)cc1
GI50 [1]: 16.1 µM | TGI [1]: 31 µM | GI50 [2]: 10.9 µM | TGI [2]: 22.9 µM | GI50 [3]: 21.3 µM | TGI [3]: 56.1 µM | GI50 [4]: 3.52 µM | TGI [4]: > 100 µM | GI50 [5]: 3.13 µM | TGI [5]: 9.66 µM | GI50 [6]: 6.19 µM | TGI [6]: 19.7 µM | GI50 [7]: 18.5 µM | TGI [7]: 34.4 µM | GI50 [8]: 3.82 µM | TGI [8]: 14.1 µM | GI50 [9]: 11.7 µM | TGI [9]: 27.1 µM | GI50 [10]: 15.9 µM | TGI [10]: 29.4 µM | GI50 [11]: 10.1 µM | TGI [11]: 21.7 µM | GI50 [12]: 17.5 µM | TGI [12]: 32 µM | GI50 [13]: 16 µM | TGI [13]: 29.5 µM | GI50 [14]: 15.9 µM | TGI [14]: 32.3 µM | GI50 [15]: 13.1 µM | TGI [15]: 26.4 µM | GI50 [16]: 12.5 µM | TGI [16]: 28.3 µM | GI50 [17]: 11.6 µM | TGI [17]: 24.1 µM | GI50 [18]: 10.4 µM | TGI [18]: 22.1 µM | GI50 [19]: 5.7 µM | TGI [19]: 30.2 µM | GI50 [20]: 15.1 µM | TGI [20]: 28.3 µM | GI50 [21]: 16.7 µM | TGI [21]: 30.3 µM | GI50 [22]: 8.93 µM | TGI [22]: 21.7 µM | GI50 [23]: 4.31 µM | TGI [23]: 15.9 µM | GI50 [24]: 12.2 µM | TGI [24]: 24.9 µM | GI50 [25]: 4.6 µM | TGI [25]: 15.6 µM | GI50 [26]: 8.45 µM | TGI [26]: 21.7 µM | GI50 [27]: 15 µM | TGI [27]: 32.7 µM | GI50 [28]: 7.69 µM | TGI [28]: 20.7 µM | GI50 [29]: 15.5 µM | TGI [29]: 47 µM | GI50 [30]: 12 µM | TGI [30]: 26.7 µM | GI50 [31]: 3.59 µM | TGI [31]: 32.4 µM | GI50 [32]: 3.03 µM | TGI [32]: 13.2 µM | GI50 [33]: 18.4 µM | TGI [33]: 39 µM | GI50 [34]: 15.2 µM | TGI [34]: 29.7 µM | GI50 [35]: 11.5 µM | TGI [35]: 25.1 µM | GI50 [36]: 14.5 µM | TGI [36]: 46.8 µM | GI50 [37]: 2.13 µM | TGI [37]: 15.1 µM | GI50 [38]: 14.9 µM | TGI [38]: 28.1 µM | GI50 [39]: 12.1 µM | TGI [39]: 24.5 µM | GI50 [40]: 18.8 µM | TGI [40]: 37.4 µM | GI50 [41]: 17.9 µM | TGI [41]: 34.6 µM | GI50 [42]: 15.6 µM | TGI [42]: 29 µM | GI50 [43]: 10.7 µM | TGI [43]: 27.7 µM | GI50 [44]: 16.9 µM | TGI [44]: 31.4 µM | GI50 [45]: 14.6 µM | TGI [45]: 27.7 µM | GI50 [46]: 14.5 µM | TGI [46]: 28.8 µM | GI50 [47]: 4.29 µM | TGI [47]: 30.6 µM | GI50 [48]: 3.04 µM | TGI [48]: 10.5 µM | GI50 [49]: 21.8 µM | TGI [49]: 64.9 µM | GI50 [50]: 10.2 µM | TGI [50]: 22.2 µM | GI50 [51]: 17.3 µM | TGI [51]: 33.9 µM | GI50 [52]: 12.3 µM | TGI [52]: 24.8 µM | GI50 [53]: 10.8 µM | TGI [53]: 22.6 µM | GI50 [54]: 10.5 µM | TGI [54]: 22.3 µM | GI50 [55]: 14.3 µM | TGI [55]: 28.9 µM | GI50 [56]: 3.52 µM | TGI [56]: 53.1 µM | GI50 [57]: 14.1 µM | TGI [57]: 27.1 µM | GI50 [58]: 14.1 µM | TGI [58]: 27.1 µM | GI50 [59]: 3.03 µM | TGI [59]: 14 µM
